For 3 compounds, Ki and Km results are on record in PMC11257449 (bioRxiv, 2024).

SMILES strings stand for the structures.

This assay addresses AmpC β-lactamase (Escherichia coli, UniProt P00811). The assay is classed as biochemical. The following applies: for Km: AmpC substrate.

AmpC β-lactamase, sequence (P00811 20-377): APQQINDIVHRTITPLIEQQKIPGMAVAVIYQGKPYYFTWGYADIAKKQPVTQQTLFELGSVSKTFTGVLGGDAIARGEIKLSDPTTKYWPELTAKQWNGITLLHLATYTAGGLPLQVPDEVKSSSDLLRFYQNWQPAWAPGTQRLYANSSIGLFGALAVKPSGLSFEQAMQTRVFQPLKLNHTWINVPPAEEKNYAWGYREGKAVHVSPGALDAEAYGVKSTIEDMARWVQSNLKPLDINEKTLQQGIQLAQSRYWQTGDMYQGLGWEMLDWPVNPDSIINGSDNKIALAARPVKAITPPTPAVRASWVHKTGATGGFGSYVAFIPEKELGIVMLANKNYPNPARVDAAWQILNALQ

As for `O=S(=O)(Nc1ccc(F)c2cnccc12)c1cc(Cl)cc(Cl)c1O` [Z6615020275], the affinity (Fig. 1 legend, crystallised inhibitors), expressed as Ki, was 2 µM.

Consider `O=C(Cc1cccs1)N[C@@H]1C(=O)N2C(C(=O)O)=C(/C=C/c3ccc([N+](=O)[O-])cc3[N+](=O)[O-])CS[C@H]12` [nitrocefin], for which the Km (in general, the substrate concentration at which the rate is half of its maximum) stood at 180 µM. As for `O=C(Cc1cccs1)N[C@@H]1C(=O)N2C(C(=O)O)=C(CSc3ccc([N+](=O)[O-])c(C(=O)O)c3)CS[C@H]12` [CENTA], the Km was 27.6 µM.
